Assay results taken from patent publication US5582986A, “Antisense oligonucleotide inhibition of the ras gene” (Isis Pharmaceuticals, Inc., priority 1994, dated 1996).

Columns and labels:
[1] = test system: normal (wild-type) H-ras-luciferase reporter gene in HeLa cells; assay: ras-luciferase reporter gene expression, normal (wild-type) form, transient transfection; type: cell-based, human; conditions: dose-response, luciferase activity as % of untreated transfected cells, read-out: IC50, inhibition of ras-luciferase activity, normal form
[2] = test system: mutant (activated, codon-12) H-ras-luciferase reporter gene in HeLa cells; assay: ras-luciferase reporter gene expression, mutant (codon-12, activated) form, transient transfection; type: cell-based, human

## 2570: phosphorothioate 17-mer CCA-CAC-CGA-CGG-CGC-CC, targeted to the codon-12 point mutation of activated H-ras RNA (antisense CCACACCGACGGCGCCC; all phosphorothioate, sugars by position and methylation of C not given here) [Oligo 2570]
[1]
  IC50: ~250 nM
[2]; at low concentrations, dose-response (FIG. 2)
  selectivity toward the mutant form of ras-luciferase as compared to the normal form: approximately threefold
[2]; dose-response, HeLa cells, luciferase activity as % of untreated transfected cells, read-out: IC50, inhibition of ras-luciferase activity, mutant form
  IC50: ~100 nM
[2]; single dose 100 nM, HeLa cells, cationic lipid (FIG. 6)
  inhibition of mutant ras-luciferase relative to wild-type: four-fold
[2]; single dose 0.5 μM (FIG. 3, FIG. 4)
  selectivity toward the mutated form of ras-luciferase as compared to the normal form (in words): displayed selectivity toward the mutated form
